Here are results for 23 molecules from ChEMBL document CHEMBL3875152, “Synthesis and evaluation against Leishmania amazonensis of novel pyrazolo[3,4-d]pyridazinone-N-acylhydrazone-(bi)thiophene hybrids” (Eur J Med Chem, 2016).

Each structure is given as a SMILES string. Where only a bound is given, the exact number is not on record here.

Data set [1] relates to Leishmania amazonensis. Put plainly: Antileishmanial activity against Leishmania amazonensis WHOM/BR/75/JOSEFA promastigotes after 72 hrs by Neubauer chamber method. It is filed as functional.
Data set [2] is described as follows: Selectivity index, ratio of CC50 for mouse L929 cells to IC50 for Leishmania amazonensis WHOM/BR/75/JOSEFA promastigotes. Format: functional.
Data set [3] is described as follows: Cytotoxicity against mouse J774A1 cells assessed as decrease in cell viability after 48 hrs by MTT method. Format: toxicity, J774.A1. (In general: Formazan colour is commonly taken as a measure of viable cells.)
Data set [4] is described as follows: Cytotoxicity against mouse L929 cells assessed as decrease in cell viability after 48 hrs by MTT method. Format: toxicity.
Data set [5] can be described thus: Selectivity index, ratio of CC50 for mouse J774A1 cells to IC50 for Leishmania amazonensis WHOM/BR/75/JOSEFA promastigotes. It is filed as functional, J774.A1.
Data set [6] can be described thus: Selectivity index, ratio of CC50 for mouse L929 cells to IC50 for Leishmania amazonensis WHOM/BR/75/JOSEFA axenic amastigotes. Format: functional.
Data set [7] concerns Leishmania amazonensis. Put plainly: Antileishmanial activity against Leishmania amazonensis WHOM/BR/75/JOSEFA axenic amastigotes after 72 hrs by Neubauer chamber method. Format: functional.
Data set [8] in a line: Selectivity index, ratio of CC50 for mouse J774A1 cells to IC50 for Leishmania amazonensis WHOM/BR/75/JOSEFA axenic amastigotes. Format: functional, J774.A1.

Take `O=C(N/N=C/c1ccc(-c2cccs2)s1)c1nn(-c2ccc(Cl)cc2)c(=O)c2c1cnn2-c1ccc(Cl)cc1`: the IC50 in data set [1] is over 100 µM. `NNC(=O)c1nn(-c2ccccc2)c(=O)c2c1cnn2-c1ccc(Cl)cc1` gave an IC50 in data set [1] of over 100 µM. Regarding `O=C(N/N=C/c1cccs1)c1n[nH]c(=O)c2[nH]ncc12`, in data set [1], the IC50 is over 100 µM. Consider `C[C@@H]1[C@H](O)[C@@H](C)/C=C/C=C/C=C/C=C/C=C/C=C/C=C/[C@H](O[C@@H]2O[C@H](C)[C@@H](O)[C@H](N)[C@@H]2O)C[C@@H]2O[C@](O)(C[C@@H](O)C[C@@H](O)[C@H](O)CC[C@@H](O)C[C@@H](O)CC(=O)O[C@H]1C)C[C@H](O)[C@H]2C(=O)O` [AMPHOTERICIN B], for which the “Ratio CC50/IC50” value is on record as 123.64 in data set [2] and 26.25 in data set [5]. Moreover, the CC50 at 48 h stood at 16.8 µM in data set [3] and 79.1 µM in data set [4]. The IC50 in data set [1] worked out at 0.64 µM.

As for `O=C(N/N=C/c1ccc(-c2cccs2)s1)c1n[nH]c(=O)c2c1cnn2-c1ccc(Cl)cc1`, the IC50 in data set [1] is over 100 µM. Still for that read-out and setting: next, `O=C(N/N=C/c1cccs1)c1nn(-c2ccc(Cl)cc2)c(=O)c2c1cnn2-c1ccc(Cl)cc1`: over 100 µM; `CN(/N=C/c1ccc(-c2cccs2)s1)C(=O)c1nn(-c2ccccc2)c(=O)c2c1cnn2-c1ccccc1`: over 100 µM; `NNC(=O)c1n[nH]c(=O)c2c1cnn2-c1ccccc1`: over 100 µM. On the same count and under the same terms, as for `NNC(=O)c1nn(-c2ccccc2)c(=O)c2c1cnn2-c1ccccc1`, the figure is over 100 µM; as for `O=C(N/N=C/c1cccs1)c1n[nH]c(=O)c2c1cnn2-c1ccccc1`, over 100 µM. Take `O=C(N/N=C/c1ccc(-c2cccs2)s1)c1nn(-c2ccccc2)c(=O)c2c1cnn2-c1ccccc1`: the “Ratio CC50/IC50” value is on record as 21.33 in data set [2], 33.38 in data set [6], over 82.48 in data set [8] and over 52.71 in data set [5]. The CC50 at 48 h in data set [3] is over 191 µM; in data set [4] it was 77.4 µM. In addition, the 50% inhibitory concentration (IC50) was found to be 3.63 µM in data set [1] and 2.32 µM in data set [7]. Consider `NNC(=O)c1nn(-c2ccc(Cl)cc2)c(=O)c2c1cnn2-c1ccccc1`, for which, in data set [1], the IC50 was over 100 µM. In the case of `O=C(N/N=C/c1ccc(-c2cccs2)s1)c1nn(-c2ccccc2)c(=O)c2c1cnn2-c1ccc(Cl)cc1`, in data set [1], the IC50 is over 100 µM. In turn, `NNC(=O)c1nn(-c2ccc(Cl)cc2)c(=O)c2c1cnn2-c1ccc(Cl)cc1` showed an IC50 in data set [1] of over 100 µM. For `O=C(N/N=C/c1ccc(-c2cccs2)s1)c1n[nH]c(=O)c2c1cnn2-c1ccccc1`, the CC50 at 48 h was 114 µM in data set [3] and under 1 µM in data set [4]. Also, the IC50 in data set [1] was 10.8 µM; in data set [7] it was over 100 µM. The “Ratio CC50/IC50” value in data set [5] is recorded as 10.6. `NNC(=O)c1n[nH]c(=O)c2[nH]ncc12` registered an IC50 in data set [1] of over 100 µM. Take `O=C(N/N=C/c1ccc(-c2cccs2)s1)c1n[nH]c(=O)c2[nH]ncc12`: in data set [1], the IC50 was over 100 µM.

As for `O=C(N/N=C/c1cccs1)c1nn(-c2ccccc2)c(=O)c2c1cnn2-c1ccccc1`, the “Ratio CC50/IC50” value in data set [2] is listed as 2.19; in data set [6], 5.68; in data set [8], 3.25; in data set [5] it was 1.25. For the same molecule, the CC50 at 48 h in data set [3] is 106 µM; in data set [4] it was 186 µM. Moreover, the IC50 in data set [1] worked out at 85 µM; in data set [7], 32.7 µM. The molecule `O=C(N/N=C/c1ccc(-c2cccs2)s1)c1nn(-c2ccc(Cl)cc2)c(=O)c2c1cnn2-c1ccccc1` yielded an IC50 in data set [1] of over 100 µM. `NNC(=O)c1n[nH]c(=O)c2c1cnn2-c1ccc(Cl)cc1`: the IC50 in data set [1] was over 100 µM. As for `O=C(N/N=C/c1cccs1)c1nn(-c2ccc(Cl)cc2)c(=O)c2c1cnn2-c1ccccc1`, in data set [1], the IC50 was over 100 µM. For the molecule `O=C(N/N=C/c1cccs1)c1nn(-c2ccccc2)c(=O)c2c1cnn2-c1ccc(Cl)cc1`, in data set [1], the IC50 was over 100 µM. In data set [1], `O=C(N/N=C/c1cccs1)c1n[nH]c(=O)c2c1cnn2-c1ccc(Cl)cc1` came in with a half-inhibitory concentration (IC50) of over 100 µM.

One may read the IC50 as the point on the concentration scale where inhibition reaches its midpoint. The low end stands for greater potency, the high end for weaker potency. The term CC50 denotes the concentration that lowers cell viability or growth by half.
